Results published in patent US8173808B2, “Substituted naphthalenyl-pyrimidine compounds” (ArQule, Inc., priority 2009, dated 2012).

Experiments:
[1] = tested on: DLD-1; assay: MTS assay, DLD-1; type: cell-based; settings: Homo sapiens, 72 hours, 1 Percent FBS
Description: (§1) Cells were maintained at 37° C., 5% CO2 in DMEM media supplemented with 1% fetal bovine serum, penicillin/streptomycin and fungizone (Invitrogen). Cells were seeded into 96-well tissue culture plates at 3000 per well and cultured at 37° C. for 18 hours. Test compounds were dissolved and diluted to 300× in DMSO then diluted 1:40 in DMEM. Cells were incubated with test compounds for 72 hours followed by incubation with tetrazolium compound (3-(4,5-dimethylthiazol-2-yl)-5-(3-carboxymethoxyphenyl)-2-(4-sulfophenyl)-2H-tetrazolium, inner salt; MTS) and the electron coupling reagent, phenazine methosulfate (PMS) for 4 hours. […] The ability of compounds to inhibit cell growth in this assay is correlated with the reduction of dehydrogenase enzyme activity found in metabolically active cells. The measurement of the absorbance of the formazan was assessed using a Victor (Perkin Elmer) microplate reader at 492 nm. The calculated IC50 value is the concentration of the test compound that causes a 50% decrease in the absorbance.

[2] = tested on: MDA-MB-231; assay: MTS assay, MDA-MB-231; type: cell-based; settings: Homo sapiens, 72 hours, 1 Percent FBS
Description: as §1

| Structure (SMILES) | inhibition at 10 µM [1] [%] | inhibition at 10 µM [2] [%] |
| --- | --- | --- |
| COc1ccc2cc(-c3ccnc(NC4CCN(C)CC4)n3)cc(N3CCOCC3)c2c1 [Compound 7, 4-(6-methoxy-4-morpholin-4-yl-2-naphthyl)-N-(1-methylpiperidin-4-yl)pyrimidin-2-amine] | 68 | 62 |
| COc1ccc2cc(-c3ccnc(NCCN(C)C)n3)cc(N3CCOCC3)c2c1 [Compound 8, N′-[4-(6-methoxy-4-morpholin-4-yl-2-naphthyl)pyrimidin-2-yl]-N,N-dimethylethane-1,2-diamine] | – | 45 |
| COc1ccc2cc(-c3ccnc(NCc4ccc(OC)c(OC)c4)n3)cc(N3CCOCC3)c2c1 [Compound 9, N-(3,4-dimethoxybenzyl)-4-(6-methoxy-4-morpholin-4-yl-2-naphthyl)pyrimidin-2-amine] | 99 | 82 |
| COc1ccc2cc(-c3ccnc(NCc4cccc(C(F)(F)F)c4)n3)cc(N3CCOCC3)c2c1 [Compound 13, 4-(6-methoxy-4-morpholin-4-yl-2-naphthyl)-N-[3-(trifluoromethyl)benzyl]pyrimidin-2-amine] | 98 | – |
| CCN1CCCC(Nc2nccc(-c3cc(N4CCOCC4)c4cc(OC)ccc4c3)n2)C1 (stereo not shown) [Compound 14, N-(1-ethylpiperidin-3-yl)-4-(6-methoxy-4-morpholin-4-yl-2-naphthyl)pyrimidin-2-amine] | 98 | 99 |
| COc1ccc2cc(-c3ccnc(NCCc4ccccc4OC)n3)cc(N3CCOCC3)c2c1 [Compound 15, 4-(6-methoxy-4-morpholin-4-yl-2-naphthyl)-N-[2-(2-methoxyphenyl)ethyl]pyrimidin-2-amine] | 90 | – |
| COc1ccc2cc(-c3ccnc(NCc4cncn4C)n3)cc(N3CCOCC3)c2c1 [Compound 16, 4-(6-methoxy-4-morpholin-4-yl-2-naphthyl)-N-[(1-methyl-1H-imidazol-5-yl)methyl]pyrimidin-2-amine] | 98 | 96 |
| COc1ccc2cc(-c3ccnc(NCCc4cccc(OC)c4OC)n3)cc(N3CCOCC3)c2c1 [Compound 17, N-[2-(2,3-dimethoxyphenyl)ethyl]-4-(6-methoxy-4-morpholin-4-yl-2-naphthyl)pyrimidin-2-amine] | 31 | – |
| COc1ccc2cc(-c3ccnc(NCCc4ccc(OC)c(OC)c4)n3)cc(N3CCOCC3)c2c1 [Compound 18, N-[2-(3,4-dimethoxyphenyl)ethyl]-4-(6-methoxy-4-morpholin-4-yl-2-naphthyl)pyrimidin-2-amine] | 88 | 31 |
| COc1ccc2cc(-c3ccnc(NCCc4ccccn4)n3)cc(N3CCOCC3)c2c1 [Compound 19, 4-(6-methoxy-4-morpholin-4-yl-2-naphthyl)-N-(2-pyridin-2-ylethyl)pyrimidin-2-amine] | 30 | – |
| COc1ccc2cc(-c3ccnc(NCc4ccccc4C)n3)cc(N3CCOCC3)c2c1 [Compound 20, 4-(6-methoxy-4-morpholin-4-yl-2-naphthyl)-N-(2-methylbenzyl)pyrimidin-2-amine] | 66 | – |
| COc1ccc2cc(-c3ccnc(NCCc4cccnc4)n3)cc(N3CCOCC3)c2c1 [Compound 21, 4-(6-methoxy-4-morpholin-4-yl-2-naphthyl)-N-(2-pyridin-3-ylethyl)pyrimidin-2-amine] | 97 | 99 |
| COCCNc1nccc(-c2cc(N3CCOCC3)c3cc(OC)ccc3c2)n1 [Compound 23, N-(2-methoxyethyl)-4-(6-methoxy-4-morpholin-4-yl-2-naphthyl)pyrimidin-2-amine] | 98 | 91 |
| COc1ccc2cc(-c3ccnc(NC4CCN(Cc5ccccc5)CC4)n3)cc(N3CCOCC3)c2c1 [Compound 24, N-(1-benzylpiperidin-4-yl)-4-(6-methoxy-4-morpholin-4-yl-2-naphthyl)pyrimidin-2-amine] | 97 | 95 |
| COc1ccc2cc(-c3ccnc(NCc4ccccn4)n3)cc(N3CCOCC3)c2c1 [Compound 25, 4-(6-methoxy-4-morpholin-4-yl-2-naphthyl)-N-(pyridin-2-ylmethyl)pyrimidin-2-amine] | 82 | 74 |
| COc1ccc2cc(-c3ccnc(NC4CC(C)(C)N(C)C(C)(C)C4)n3)cc(N3CCOCC3)c2c1 [Compound 26, 4-(6-methoxy-4-morpholin-4-yl-2-naphthyl)-N-(1,2,2,6,6-pentamethylpiperidin-4-yl)pyrimidin-2-amine] | 92 | 98 |
| COc1cc(CCNc2nccc(-c3cc(N4CCOCC4)c4cc(OC)ccc4c3)n2)cc(OC)c1 [Compound 27, N-[2-(3,5-dimethoxyphenyl)ethyl]-4-(6-methoxy-4-morpholin-4-yl-2-naphthyl)pyrimidin-2-amine] | 87 | – |

| Structure (SMILES) | inhibition at 10 µM [1] [%] | inhibition at 10 µM [2] [%] |
| --- | --- | --- |
| COc1ccc(CNc2nccc(-c3cc(N4CCOCC4)c4cc(OC)ccc4c3)n2)cc1 [Compound 28, N-(4-methoxybenzyl)-4-(6-methoxy-4-morpholin-4-yl-2-naphthyl)pyrimidin-2-amine] | 98 | 99 |
| COc1ccc2cc(-c3ccnc(NCCN4CCCC4)n3)cc(N3CCOCC3)c2c1 [Compound 29, 4-(6-methoxy-4-morpholin-4-yl-2-naphthyl)-N-(2-pyrrolidin-1-ylethyl)pyrimidin-2-amine] | 81 | 76 |
| COc1ccc2cc(-c3ccnc(NCC(C)(C)CN(C)C)n3)cc(N3CCOCC3)c2c1 [Compound 30, N′-[4-(6-methoxy-4-morpholin-4-yl-2-naphthyl)pyrimidin-2-yl]-N,N,2,2-tetramethylpropane-1,3-diamine] | 63 | 78 |
| CNc1nccc(-c2cc(NC(=O)CN3CCN(c4ccc(C(F)(F)F)cn4)CC3)c3cc(OC)ccc3c2)n1 [Compound 55, N-{7-methoxy-3-[2-(methylamino)pyrimidin-4-yl]-1-naphthyl}-2-{4-[5-(trifluoromethyl)pyridin-2-yl]piperazin-1-yl}acetamide] | – | 65 |
| CNc1nccc(-c2cc(NC(=O)CNc3ccncc3)c3cc(OC)ccc3c2)n1 [Compound 56, N-{7-methoxy-3-[2-(methylamino)pyrimidin-4-yl]-1-naphthyl}-N~2~-pyridin-4-ylglycinamide] | – | 50 |
| CNc1nccc(-c2cc(NC(=O)CN3CCN(Cc4ccc(Cl)cc4)CC3)c3cc(OC)ccc3c2)n1 [Compound 66, 2-[4-(4-chlorobenzyl)piperazin-1-yl]-N-{7-methoxy-3-[2-(methylamino)pyrimidin-4-yl]-1-naphthyl}acetamide] | 69 | – |
| CNc1nccc(-c2cc(NC(=O)CNCCCN3CCN(C)CC3)c3cc(OC)ccc3c2)n1 [Compound 69, N-{7-methoxy-3-[2-(methylamino)pyrimidin-4-yl]-1-naphthyl}-N~2~-[3-(4-methylpiperazin-1-yl)propyl]glycinamide] | – | 40 |
| CNc1nccc(-c2cc(NC(=O)CN3CCN(c4ccncc4)CC3)c3cc(OC)ccc3c2)n1 [Compound 70, N-{7-methoxy-3-[2-(methylamino)pyrimidin-4-yl]-1-naphthyl}-2-(4-pyridin-4-ylpiperazin-1-yl)acetamide] | – | 37 |
| CNc1nccc(-c2cc(NC(=O)CN3CCN(CCCN4CCOCC4)CC3)c3cc(OC)ccc3c2)n1 [Compound 77, N-{7-methoxy-3-[2-(methylamino)pyrimidin-4-yl]-1-naphthyl}-2-[4-(3-morpholin-4-ylpropyl)piperazin-1-yl]acetamide] | – | 41 |
| COc1ccc2cc(-c3ccnc(NCc4ccc(OC)c(OC)c4)n3)cc(NC(=O)OC(C)(C)C)c2c1 [Compound 87, tert-butyl (3-{2-[(3,4-dimethoxybenzyl)amino]pyrimidin-4-yl}-7-methoxy-1-naphthyl)carbamate] | 45 | – |
| COc1ccc2cc(-c3ccnc(NCc4cccc(C(F)(F)F)c4)n3)cc(NC(=O)OC(C)(C)C)c2c1 [Compound 90, tert-butyl [7-methoxy-3-(2-{[3-(trifluoromethyl)benzyl]amino}pyrimidin-4-yl)-1-naphthyl]carbamate] | – | 43 |
| COc1ccc2cc(-c3ccnc(NCCc4ccc(OC)c(OC)c4)n3)cc(NC(=O)OC(C)(C)C)c2c1 [Compound 95, tert-butyl [3-(2-{[2-(3,4-dimethoxyphenyl)ethyl]amino}pyrimidin-4-yl)-7-methoxy-1-naphthyl]carbamate] | – | 39 |
| COc1ccc2cc(-c3ccnc(NCc4ccccn4)n3)cc(NC(=O)OC(C)(C)C)c2c1 [Compound 102, tert-butyl (7-methoxy-3-{2-[(pyridin-2-ylmethyl)amino]pyrimidin-4-yl}-1-naphthyl)carbamate] | 43 | – |
| CNc1nccc(-c2cc(NC3CCN(c4cc(N)ncn4)CC3)c3cc(OC)ccc3c2)n1 [Compound 156, 4-(4-{[1-(6-aminopyrimidin-4-yl)piperidin-4-yl]amino}-6-methoxy-2-naphthyl)-N-methylpyrimidin-2-amine] | 34 | – |
| CNc1nccc(-c2cc(NC3CCN(c4ncnc5scc(C)c45)CC3)c3cc(OC)ccc3c2)n1 [Compound 160, 4-(6-methoxy-4-{[1-(5-methylthieno[2,3-d]pyrimidin-4-yl)piperidin-4-yl]amino}-2-naphthyl)-N-methylpyrimidin-2-amine] | 50 | – |
| CNc1nccc(-c2cc(NC3CCN(c4cc(Cl)nc(C)n4)CC3)c3cc(OC)ccc3c2)n1 [Compound 162, 4-(4-{[1-(6-chloro-2-methylpyrimidin-4-yl)piperidin-4-yl]amino}-6-methoxy-2-naphthyl)-N-methylpyrimidin-2-amine] | 42 | – |
